According to patent publication US11028087B2, “2,6-disubstituted-9-cyclopentyl-9H-purines, use thereof as medicaments, and pharmaceutical compositions” (UNIVERZITA PALACKEHO V OLOMOUCI, priority 2017, dated 2021):

How the values were obtained:
[1] = test system: ERK1/2, STAT5 and STAT3 phosphorylation in EOL-1 cells; assay: Immunoblotting of signaling downstream of PDGFR in EOL-1 cells; type: cell-based; conditions: 1 hour (FIG. 4)
Protocol: (§1) To confirm kinase-inhibitory activity of novel compounds in cells, MV4-11 cells with FLT3-ITD and EOL-1 cells expressing FIP1L1-PDGFRA fusion protein were analyzed upon 1 hour treatment. Treated cells were harvested by centrifugation and homogenized in an extraction buffer (10 mM HEPES pH 7.4, 1 mM EDTA, 1 mM EGTA, 5 mM KC, 1.5 mM MgCl2, 0.5% NP40, supplemented with 1 mM DTT, 1 mM NaF, 0.1 mM Na3VO4, 1 mM PMSF, 0.5 μg/ml Leupeptin, 2 μg/ml Aprotinin) on ice for […]. The homogenates were clarified by centrifugation at 10,000 g for 30 min at 4° C., proteins were quantified by the Bradford method and then diluted to the same concentration. […] of total proteins were separated by SDS-polyacrylamide gel electrophoresis and transferred onto nitrocellulose membranes. Membranes were blocked in 5% BSA in TBS with 0.1% Tween 20 and probed overnight with specific antibodies for FLT3 (clone 8F2), phospho-FLT3 Y589/591 (30D4), phospho-FLT3 Y591 (33G6), phospho-FLT3 Y842 (10A8), phospho-FLT3 Y969 (C24D9), PDGFRA (D1E1E), phospho-PDGFRA Y849/PDGFRB Y857 (C43E9), phospho-PDGFRA Y1018, p44/42 MAPK (ERK1/2), phospho-p44/42 MAPK (ERK1/2) (Thr202/Tyr204), STAT5, Phospho-STAT5(Tyr694), STAT3 (79D7), phospho-STAT3 (Tyr705) (D3A7), MEK1/2 (D1A5), phospho-MEK1/2 (Ser217/221) purchased from Cell Signaling, USA, α-tubulin (DM1A, Sigma Aldrich, USA) and PCNA (PC-10, gifted by Dr. B. Vojtesek). […]

[2] = test system: ERK1/2, STAT5 and STAT3 phosphorylation in MV4-11 cells; assay: Immunoblotting of signaling downstream of FLT3 in MV4-11 cells; type: cell-based; conditions: 1 hour (FIG. 3)
Protocol: as §1

CDK7Cyclin H/MAT1 = target: T1, CDK7Cyclin H/MAT1 (Homo sapiens, UniProt P50613); assay: Kinase inhibition assay with [γ-33P]ATP; type: biochemical; conditions: (YSPTSPS)2KK peptide, 1.5 μM ATP; read-out: IC50 values (μM) CDK7
T1 construct: purchased ProQinase GmbH
T1 sequence (P50613 whole entry): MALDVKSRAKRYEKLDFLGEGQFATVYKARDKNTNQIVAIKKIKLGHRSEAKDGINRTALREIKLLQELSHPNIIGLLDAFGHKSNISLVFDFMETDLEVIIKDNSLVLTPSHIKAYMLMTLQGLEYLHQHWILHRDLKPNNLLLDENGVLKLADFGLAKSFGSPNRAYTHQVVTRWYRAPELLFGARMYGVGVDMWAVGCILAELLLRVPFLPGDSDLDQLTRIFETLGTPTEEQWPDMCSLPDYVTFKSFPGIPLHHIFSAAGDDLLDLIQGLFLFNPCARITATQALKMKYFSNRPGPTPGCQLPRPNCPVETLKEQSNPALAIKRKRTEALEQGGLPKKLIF
T1 sequence (P51946 whole entry partner): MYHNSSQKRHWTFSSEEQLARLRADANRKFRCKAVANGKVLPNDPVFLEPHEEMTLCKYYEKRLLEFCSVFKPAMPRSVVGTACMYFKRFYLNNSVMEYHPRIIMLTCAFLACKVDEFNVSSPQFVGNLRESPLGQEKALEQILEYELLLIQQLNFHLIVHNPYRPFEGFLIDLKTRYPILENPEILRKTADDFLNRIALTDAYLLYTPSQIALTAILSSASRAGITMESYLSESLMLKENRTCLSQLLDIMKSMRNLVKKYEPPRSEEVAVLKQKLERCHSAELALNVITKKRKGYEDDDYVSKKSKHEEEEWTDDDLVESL
T1 sequence (P51948 whole entry partner): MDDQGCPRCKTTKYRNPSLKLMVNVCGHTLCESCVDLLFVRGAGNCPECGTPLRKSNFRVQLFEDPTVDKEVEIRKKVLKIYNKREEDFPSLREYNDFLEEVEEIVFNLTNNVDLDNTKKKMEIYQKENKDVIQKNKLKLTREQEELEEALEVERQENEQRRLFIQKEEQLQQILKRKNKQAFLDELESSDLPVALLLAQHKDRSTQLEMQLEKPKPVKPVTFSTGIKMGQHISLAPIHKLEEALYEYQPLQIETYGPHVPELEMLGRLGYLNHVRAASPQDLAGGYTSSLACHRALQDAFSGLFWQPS

[3] = test system: FLT3 (FLT3-ITD) in MV4-11 cells; assay: Immunoblotting of FLT3 phosphorylation in MV4-11 cells; type: cell-based; conditions: MV4-11 FLT3-ITD cells, 1 hour treatment, immunoblotting (FIG. 1)
Protocol: Cells were exposed for 1 hour to the indicated concentrations of 264 or 270 and then levels of phosphorylations at specific tyrosine residues of FLT3 were analyzed.
To confirm kinase-inhibitory activity of novel compounds in cells, MV4-11 cells with FLT3-ITD and EOL-1 cells expressing FIP1L1-PDGFRA fusion protein were analyzed upon 1 hour treatment. Treated cells were harvested by centrifugation and homogenized in an extraction buffer (10 mM HEPES pH 7.4, 1 mM EDTA, 1 mM EGTA, 5 mM KC, 1.5 mM MgCl2, 0.5% NP40, supplemented with 1 mM DTT, 1 mM NaF, 0.1 mM Na3VO4, 1 mM PMSF, 0.5 μg/ml Leupeptin, 2 μg/ml Aprotinin) on ice for […]. The homogenates were clarified by centrifugation at 10,000 g for 30 min at 4° C., proteins were quantified by the Bradford method and then diluted to the same concentration. […] of total proteins were separated by SDS-polyacrylamide gel electrophoresis and transferred onto nitrocellulose membranes. […]

[4] = test system: STAT5 phosphorylation in MV4-11 xenograft; assay: MV4-11 xenograft target modulation, pSTAT5 immunoblot; type: in vivo, mice; conditions: single dose 10 mg/kg intraperitoneal, after 24 hours
Protocol: (§2) Female athymic nu/nu mice (8 weeks old) were subcutaneously implanted with 5×10^6 MV4-11 cells in 1:1 mixture with Matrigel (High concentration basement membrane Matrigel, Corning) into the hind flank on day 0. Tumors were allowed to growth to the volume of 500-800 mm^3. Body weight and tumor size were recorded 3 times a week. Mice were randomized to treatment groups, 4 to 5 mice each, for target modulation studies.
(§3) Mice were sacrificed at 2 time points (2 hours and 24 hours) after treatment. Tumors were resected and mechanically disintegrated. Cells were washed twice with PBS (lx), then lysed in ice-cold lysis buffer (10 mM HEPES pH 7.4, 1 mM EDTA, 1 mM EGTA, 5 mM KCl, 1.5 mM MgCl2) supplemented with protease and phosphatase inhibitors (10 mM β-glycerolphosphate; 1 mM NaF; 0.1 mM Na3VO4; 0.1 mM PMSF; 10 μg/ml Leupeptin; 2 μg/ml Aprotinin; 1 mM DTT) and cleared by centrifugation. Samples (50 μg of total protein amount) were separated on SDS-PAGE, followed by transfer of the separated proteins to nitrocellulose membrane.

[5] = test system: FLT3 phosphorylation in MV4-11 xenograft; assay: MV4-11 xenograft target modulation, pFLT3 immunoblot; type: in vivo, mice
Protocol: as §2, §3

SMILES: NC1CCC(Nc2nc(Nc3ccc(CN4CCOCC4)cc3)c3ncn(C4CCCC4)c3n2)CC1 (centres unmarked) [Compound 264]
- phosphorylation of ERK1/2, STAT5 and STAT3 [1]: reduced phosphorylation
- phosphorylation of ERK1/2, STAT5 and STAT3 [2]: reduced phosphorylation
- IC50 (CDK7Cyclin H/MAT1): 0.178 µM
- phosphorylation of tyrosine residues of FLT3 receptor kinase (including Y589, Y591, Y742) [3]: cellular FLT3 dephosphorylation
- reduction of pSTAT5 level in tumor [4]: more than 95%
- inhibition of pFLT3 in tumor ([5]; nu/nu mice, single dose 10 mg/kg intraperitoneal, 2 hours after administration): 95%
- pFLT3 level in tumor at 24 hours ([5]; single dose 10 mg/kg (264 intraperitoneal, Quizartinib oral gavage), 24 hours): the inhibition sustained 24 hours

SMILES: NCCCCNc1nc(Nc2ccc(CN3CCOCC3)cc2)c2ncn(C3CCCC3)c2n1 [Compound 270]
- phosphorylation of ERK1/2, STAT5 and STAT3 [1]: reduced phosphorylation
- phosphorylation of ERK1/2, STAT5 and STAT3 [2]: reduced phosphorylation
- phosphorylation of tyrosine residues of FLT3 receptor kinase (including Y589, Y591, Y742) [3]: cellular FLT3 dephosphorylation

SMILES: CN1CC2(C1)CN(c1ccc(Nc3nc(NC4CCC(O)CC4)nc4c3ncn4C3CCCC3)cc1)C2 (centres unmarked) [Compound 7]
- IC50 (CDK7Cyclin H/MAT1): 0.197 µM
